Assay results from patent US20050209193A1, “Method for enhanced photodynamic therapy” (priority 2003, published 2005).

Assays:
skin of the subject = assay: Determination of effective treatment time for PDT/IPL/RF rejuvenation therapy after ALA application; type: in vivo, human
From the text: ALA, was applied to the skin of the subject. The light used for PDT was IPL comprising a variety of wavelengths, with an intensity of 26 J. PDT/IPL/RF was applied at various time points following ALA application. […] The increase in efficacy leveled off at hours 5 and 6.
A 4-hour treatment with ALA was required for significant efficacy of PDT/IPL/RF. A time course of this length may be accompanied by increases in erythema and other side effects. In order to minimize side effects, it was determined that a 1-hour treatment was preferred. The 1-hour treatment requires repeated administrations for maximum efficacy, but prevents skin breakdown. With its potential for increased side effects, the 4-hour treatment should be reserved for severe premalignant cases only.

[1] = system: skin of patients (keratoses, sun damage, rosacea, melasma, wrinkles); assay: Treatment of patients with PDT/IPL/RF after ALA application; type: in vivo, human
Protocol: Four patients were treated with a combination of PDT, IPL, and RF. ALA was applied to the patients at time 0.
Patient 1 received one PDT/RF/IPL peel treatment at full energy (26 J) 4 hours after application of ALA.
Patients 2, 3, and 4 received four sessions of PDT/RF/IPL photofacial treatments at full energy (26 J) 1 hour after application of ALA.

[2] = Patient 1, one PDT/RF/IPL peel treatment at 26 J, 4 hours after ALA

NCC(=O)CCC(=O)O [ALA, 5-aminolevulinic acid]
efficacy of PDT/IPL/RF versus standard IPL/RF alone (skin of the subject; PDT/IPL/RF applied 15 minutes after ALA application, IPL 26 J, human test subject): no more efficacious than standard IPL/RF alone
efficacy of PDT/IPL/RF over RF alone (skin of the subject; PDT/IPL/RF applied 30 minutes after ALA application, IPL 26 J): minimal increase in efficacy
efficacy of PDT/IPL/RF over RF alone (skin of the subject; PDT/IPL/RF applied 45 minutes after ALA application, IPL 26 J): minimal increase in efficacy
efficacy of PDT/IPL/RF (skin of the subject; PDT/IPL/RF applied 1 hour after ALA application, IPL 26 J): noticeable increase in efficacy
efficacy of PDT/IPL/RF (skin of the subject; PDT/IPL/RF applied 2 hours after ALA application, IPL 26 J): noticeable increase in efficacy
efficacy of PDT/IPL/RF (skin of the subject; PDT/IPL/RF applied 4 hours after ALA application, IPL 26 J): largest increase of any point in time
efficacy of PDT/IPL/RF (skin of the subject; PDT/IPL/RF applied 5 hours after ALA application, IPL 26 J): leveled off
efficacy of PDT/IPL/RF (skin of the subject; PDT/IPL/RF applied 6 hours after ALA application, IPL 26 J): leveled off
ALA treatment time required for significant efficacy of PDT/IPL/RF (skin of the subject; human test subject): 4 h
effect on lentigines ([1]; 4-hour treatment, Patient 1): selective destruction of lentigines
effect on atypia and keratoses [1, 2]: significant darkening and slough of atypia and keratoses
effect on wrinkles [1, 2]: diminution of wrinkles
skin rejuvenation [1, 2]: generalized skin rejuvenation
effect on sun damage, rosacea, and melasma ([1]; Patients 2, 3 and 4, four sessions PDT/RF/IPL photofacial at 26 J, 1 hour after ALA): decrease in sun damage, rosacea, and melasma
